Measured values reported in patent publication US20050186137A1, “Novelty-induced hypophagia-based assays for identifying agents to treat anxiety and depression” (priority 2003, published 2005).

Columns and labels:
BALB/cJ mice [1] = conditions: acute 10 mg/kg fluoxetine; cited from earlier work
BALB/cJ mice [2] = assay: Prepulse inhibition of startle; assay type: in vivo, mouse
Description: (§1) For chronic fluoxetine studies in BALB/cJ mice, 60 male BALB/cJ mice were tested in the OF for 30 min on days 19 or 20 of chronic fluoxetine treatment. Mice were then pretested and tested in the modified FST on days 21 and 22, respectively. Animals were then allowed to adapt to being singly housed, and were trained for NIH on days 25-27. Home cage and novel cage testing occurred on days 28 and 29, respectively. Mice were then assessed for PPI on days 34 or 35.
(§2) Studies of subchronic fluoxetine were conducted using separate groups of 60 male BALB/cJ mice to prevent fluoxetine treatment from exceeding one week. One group was tested in the OF after one day of subchronic fluoxetine treatment. Mice were then pretested after 6 and tested after 7 days of subchronic fluoxetine treatment in the modified FST. A second group of BALB/cJ mice began fluoxetine treatment after being singly housed. They were then tested in the NIH test after 4 (home) and 5 (novel) days of subchronic fluoxetine treatment. A third group was tested for PPI after one or two days of subchronic fluoxetine treatment.
Prepulse Inhibition: Startle experiments were performed in MED-Associates chambers. Nonrestrictive Plexiglas cylinders 5 cm in diameter rested on a Plexiglas platform with a transducer amplifier. The sound-dampening isolation chambers were ventilated, well-lit, and equipped with an acoustic stimulator. Data acquisition was performed using Med-Associates software.
Five different trial types were presented in the test session: a 40-msec broadband 120 dB burst (PULSE ALONE trial); three different PREPULSE+PULSE trials in which 20-msec long 3 dB (pp3), 6 dB (pp6), or 12 dB (pp12) stimuli above a 70 dB background preceded the 120 dB pulse by 100 msec (onset to onset), and a NO STIMULUS trial, in which only the background noise was presented. Trials were presented in a pseudo-random order. A variable interval of 10-20 seconds separated trials.
The test session consisted of 62 test trials. The session began with a 10 min acclimation period, followed by four consecutive blocks of test trials. Blocks one and four consisted of six consecutive PULSE ALONE trials, while blocks two and three contained six PULSE ALONE trials, five pp3+p120 trials, five pp6+p120 trials, five pp12+p120 trials, and four NO STIMULUS trials. Analyses were performed using average values for each trial type.
Prepulse Inhibition: PPI was calculated as the averaged startle magnitude caused by PULSE ALONE trials from blocks two and three, minus the averaged startle magnitude caused by the prepulse-pulse trials, all divided by the averaged PULSE ALONE values from blocks two and three. The resulting value was multiplied by 100 and presented as a percent PPI value. Four-factor ANOVAs with fluoxetine and RU24969 as between subjects factors and prepulse intensity and block as within subjects variables assessed percent PPI levels. Interactions were resolved using post-hoc ANOVAs with adjusted p-values, and/or Newman-Keuls post-hoc tests.

[3] = administration of fluoxetine in the drinking water; cited from earlier work
[4] = patients taking 20-80 mg/day Prozac; cited from earlier work
BALB/cJ mice [5] = assay: Open field test, chronic vs. subchronic fluoxetine; assay type: in vivo, mouse
Description: as §1, §2
Open field test: Motor activity was quantified in four Plexiglas OF boxes 43 x 43 cm (MED Associates, Georgia, Vt.). Two sets of 16 pulse-modulated infrared photobeams were placed on opposite walls 2.5-cm apart to record x-y ambulatory movements. Activity chambers were computer interfaced for data sampling at 100-ms resolution. The computer defined grid lines that divided each OF into center and surround regions, with each of four lines being 11 cm from each wall. Dependent measures were the number of entries into the center, the distance traveled in the center, total time spent in the center, and distance traveled in the center divided by total distance traveled. Overall motor activity was quantified as the total distance traveled (cm).
Open field test: For Experiment 1, two-factor ANOVAs with fluoxetine as a between-subject factor and day as a within-subject factor were applied to five measures for each strain: time spent in the center, distance traveled in the center, center distance/total distance traveled, entries into the center, and total distance traveled. Main effects of fluoxetine or significant interactions of fluoxetine and day were resolved using post-hoc ANOVAs with adjusted p-values and/or Newman-Keuls post-hoc tests. Subchronic and chronic experiments in Balb/cJ mice were analyzed using one-way ANOVAs with fluoxetine as a between-subjects factor and Newman-Keuls post-hoc tests for the same variables. Because data deviated substantially from a normal distribution due to low activity levels of Balb/cJ mice, analyses were applied to log transformed data.
Remaining significant effects of fluoxetine indicate independence between measures of locomotor activity and center measures.

[6] = Serum fluoxetine levels by liquid chromatography with fluorescence detection; assay type: in vivo, mouse; conditions: Balb/cJ mice
Description: Fluoxetine was a generous gift from Lilly (Indianapolis, Ind.), and was delivered ad libitum in the drinking water. Fluoxetine was dissolved in tap water and changed weekly. For initial strain comparison studies, daily drinking was measured and the concentration of fluoxetine solutions were adjusted to deliver 0, 5, or 10 mg/kg/day of fluoxetine to each strain. For subchronic and chronic studies in BALB/cJ mice, 80-mg/L, 160 mg/L, and 240 mg/L fluoxetine was given, and drinking was recorded throughout the study. Fluoxetine plasma levels were determined by liquid chromatography with fluorescence detection (Suckow et al., 1992) for chronically treated Balb/cJ mice. 5-methoxy-3(1,2,3,6)tetrahydropyridin-4-yl-1H-indole (RU24969) was obtained from Tocris Cookson (Ellisville, Mo.), dissolved in saline, and delivered i.p. (5 ml/kg) with 26 gauge needles. Both drugs were protected from light.

animals = animals without drug withdrawal or chronic stress; low dose fluoxetine; cited from earlier work
[7] = chronic 18 mg/kg/day vs controls

CNCCC(Oc1ccc(C(F)(F)F)cc1)c1ccccc1 (centres unmarked) [fluoxetine]
immobility (BALB/cJ mice [1]): reduces immobility acutely
PPI in RU24969-treated mice (BALB/cJ mice [2]; chronic 10 mg/kg/day fluoxetine, 12 dB prepulse intensity): increased PPI relative to RU24969-treated mice receiving 0 and 18 mg/kg/day fluoxetine
Startle reactivity, interactions of RU24969 with fluoxetine (BALB/cJ mice [2]; chronic fluoxetine): no interactions
RU24969-induced disruption of PPI (BALB/cJ mice [2]; chronic fluoxetine 10, 18, 25 mg/kg/day, 10 mg/kg RU24969, 3, 6, 12 dB prepulse): RU24969 disrupted PPI in control mice, but not mice treated with any dose of fluoxetine
PPI, fluoxetine alone (BALB/cJ mice [2]; chronic fluoxetine without RU24969): No effects
PPI, interactions of RU24969 with fluoxetine (BALB/cJ mice [2]; subchronic fluoxetine (1-2 days)): No interactions
startle reactivity in the second and third blocks (BALB/cJ mice [2]; subchronic fluoxetine study (1-2 days), 10 mg/kg RU24969): no effects
time by which steady state blood levels have been achieved [3]: ≤ 5 days
range of plasma levels found in patients [4]: 100 to 700 ng/mL
log of center entries (BALB/cJ mice [5]; chronic 10 mg/kg/day): lower values than groups receiving 18 mg/kg/day and 25 mg/kg/day
center entries, without logarithmic transformation (BALB/cJ mice [5]; [7]): made more center entries
center/total distance, without logarithmic transformation (BALB/cJ mice [5]; [7]): trend for higher center/total distance values
log of center distance (BALB/cJ mice [5]; [7]): significantly higher values than controls
log of center distance/log total distance traveled (BALB/cJ mice [5]; [7]): significantly higher values than controls
log of center entries (BALB/cJ mice [5]; [7]): significantly higher values than controls
log of time in the center (BALB/cJ mice [5]; chronic fluoxetine): no significant effect of drug
total locomotor activity (log transformed) (BALB/cJ mice [5]; chronic fluoxetine 10, 18, 25 mg/kg/day, 30 min test): did not alter total locomotor activity
total locomotor activity, without logarithmic transformation (BALB/cJ mice [5]; chronic fluoxetine, all doses): remain unaffected by all doses of drug
any measures in the OF (BALB/cJ mice [5]; subchronic (one day) fluoxetine, untransformed or log transformed): no differences in any measures in the OF
Serum fluoxetine levels ([6]; chronic fluoxetine 10 mg/kg/day (80 mg/L drinking water)): 170.3 ± 57.8 ng/mL
Serum fluoxetine levels ([6]; chronic fluoxetine 18 mg/kg/day (160 mg/L drinking water)): 563.4 ± 118.4 ng/mL
Serum fluoxetine levels ([6]; chronic fluoxetine 25 mg/kg/day (240 mg/L drinking water)): 1779.2 ± 364.9 ng/mL
intracranial self-stimulation reward thresholds (animals): no effect
